Literature values, collected in patent publication US9974767B2, “Statins in the treatment of muscular dystrophies and myopathies” (University of Washington, priority 2014, dated 2018).

Conditions: food intake; cited from earlier work

SMILES | absorption when consumed with food
CC[C@H](C)C(=O)O[C@H]1C[C@H](O)C=C2C=C[C@H](C)[C@H](CC[C@@H](O)C[C@@H](O)CC(=O)O)[C@H]21 [pravastatin] | reduced absorption
CC[C@H](C)C(=O)O[C@H]1C[C@@H](C)C=C2C=C[C@H](C)[C@H](CC[C@@H]3C[C@@H](O)CC(=O)O3)[C@H]21 [lovastatin] | more efficiently absorbed
CC(C)c1nc(N(C)S(C)(=O)=O)nc(-c2ccc(F)cc2)c1/C=C/[C@@H](O)C[C@@H](O)CC(=O)O [rosuvastatin] | not affected
COCc1c(C(C)C)nc(C(C)C)c(/C=C/[C@@H](O)C[C@@H](O)CC(=O)O)c1-c1ccc(F)cc1 [cerivastatin] | not affected
CC(C)n1c(/C=C/C(O)CC(O)CC(=O)O)c(-c2ccc(F)cc2)c2ccccc21 (centres unmarked) [fluvastatin] | reduced absorption
